Measured values published in US20230096766A1, “AMINO ACID HAVING FUNCTIONAL GROUP CAPABLE OF INTERMOLECULAR HYDROGEN BONDING, PEPTIDE COMPOUND CONTAINING SAME AND METHOD FOR PRODUCTION THEREOF” (Chugai Seiyaku Kabushiki Kaisha, priority 2018, published 2023).
*1 amine or outer side, *2 acyl side, *3 side chain or, on linkers, in order; H or OH if unused. Where a SMILES comes first, the peptide text is derived from it. Bridges are numbered along the chain shown (N, C = ends). [ ]: non-standard residue; d: D form. The star is where a group is joined. ξ: configuration not given here. NMeAbu(3,3-F2-piperidino) = CN[C@@H](CCN1CCCC(F)(F)C1)C(=O)O; hPhe(3-OMe,4-CONHMe) = CNC(=O)c1ccc(CC[C@H](N)C(=O)O)cc1OC; NMePhe(3-Cl) = CN[C@@H](Cc1cccc(Cl)c1)C(=O)O; X12 = O=C([C@H](CCCC(O)C(F)(F)F)N[*:1])[*:2]; ξGln(SO2Me) = CS(=O)(=O)NC(=O)CCC(N)C(=O)O; NMehPhe = CN[C@@H](CCc1ccccc1)C(=O)O; X6 = O=C([C@H](CCCCO)N[*:1])[*:2]; Hyp = O=C(O)[C@@H]1C[C@@H](O)CN1; NMeF = CN[C@@H](Cc1ccccc1)C(=O)O; NMeI = CC[C@H](C)[C@H](NC)C(=O)O; CH2CH(OH)CF3 = OC(C*)C(F)(F)F; NMeL = CN[C@@H](CC(C)C)C(=O)O; NMeV = CN[C@H](C(=O)O)C(C)C; NMeAbu = CC[C@H](NC)C(=O)O; NMeA = CN[C@@H](C)C(=O)O; Piperidide = C1CCN(*)CC1; dAbu = CC[C@@H](N)C(=O)O; NBuGly = CCCCNCC(=O)O; Isopentyl = CC(C)CC*; Propyl(3-OH) = OCCC*; Ethyl(2-OH) = OCC*; Sar = CNCC(=O)O; tBu = CC(C)(C)*

assay: in vitro; details: human, Caco-2, Caco-2

Point of comparison: `CC(C)CCOC[C@@H]1NC(=O)[C@H](CCN2CCCC(F)(F)C2)N(C)C(=O)[C@H](Cc2ccccc2)N(C)C(=O)CN(C)C(=O)[C@H]([C@@H](C)O)NC(=O)[C@H](CC(C)C)N(C)C(=O)[C@H](CC(C)C)NC(=O)[C@H](Cc2ccccc2)N(C)C(=O)CN(C)C(=O)C[C@@H](C(=O)N2CCCCC2)NC(=O)[C@H](CC(C)C)N(C)C1=O` [pd393] ([Sar][NMeF]L[NMeL]T[Sar][NMeF][NMeAbu(3,3-F2-piperidino)]S(Isopentyl)[NMeL]D-Piperidide; lactam N-11), Papp 2.8 ×10⁻⁶ cm/s. Against it:
- CCCCN1CC(=O)N(C)[C@@H](C(C)C)C(=O)N[C@H](C(=O)N2CCCCC2)CC(=O)N(C)[C@@H](CC)C(=O)N[C@@H](CC(C)C)C(=O)N(C)[C@@H](CC(C)C)C(=O)N(C)[C@@H](Cc2ccccc2)C(=O)NC(CCC(=O)NS(C)(=O)=O)C(=O)N(C)[C@@H](Cc2ccccc2)C(=O)N(C)[C@@H](CC(C)C)C(=O)N[C@@H](CC(C)C)C1=O (stereo partly drawn) [pd69] ([NMeAbu]L[NMeL][NMeF][ξGln(SO2Me)][NMeF][NMeL]L[NBuGly][NMeV]D-Piperidide; lactam N-11) — lower, < 0.14 ×10⁻⁶ cm/s
- CCCCN1CC(=O)N(C)[C@@H](C(C)C)C(=O)N[C@@H](CC(C)C)C(=O)N(C)[C@@H](Cc2ccccc2)C(=O)N(C)[C@@H](CCN2CCCC(F)(F)C2)C(=O)N[C@H](C(=O)N2CCCCC2)CC(=O)N[C@H](C)C(=O)N(C)[C@@H](Cc2ccccc2)C(=O)N[C@@H](CC(C)C)C(=O)N(C)[C@@H](CC(C)C)C(=O)N[C@@H]([C@@H](C)O)C1=O [pd388] ([dA][NMeF]L[NMeL]T[NBuGly][NMeV]L[NMeF][NMeAbu(3,3-F2-piperidino)]D-Piperidide; lactam N-11) — within 1.5-fold, 1.9 ×10⁻⁶ cm/s

same assay, conditions: human, Caco-2, Caco-2 (cm/sec)

Point of comparison: `CC[C@H](C)[C@@H]1NC(=O)[C@H](CC(C)C)N(C)C(=O)[C@@H](C)NC(=O)C[C@@H](C(=O)N2CCCCC2)NC(=O)[C@H](C(C)C)N(C)C(=O)[C@H](Cc2ccccc2)N(C)C(=O)[C@H](COC(C)(C)C)NC(=O)[C@H](CC(C)C)N(C)C(=O)CN(C)C(=O)[C@H](Cc2ccc(O)cc2)NC(=O)[C@H](C)N(C)C1=O` [pd117] ([dA][NMeL]I[NMeA]Y[Sar][NMeL]S(tBu)[NMeF][NMeV]D-Piperidide; lactam N-11), Papp 0.56 ×10⁻⁶ cm/s. Against it:
- CC[C@H]1NC(=O)C[C@@H](C(=O)N2CCCCC2)NC(=O)[C@H](CC(C)C)N(C)C(=O)[C@H](Cc2cccc(Cl)c2)N(C)C(=O)[C@H](CCCCO)NC(=O)[C@H](CC(C)C)N(C)C(=O)CN(C)C(=O)[C@H]([C@@H](C)O)NC(=O)[C@H](CC(C)C)N(C)C(=O)[C@H](CC(C)C)NC(=O)[C@H](CCc2ccccc2)N(C)C1=O [Compound B02] ([dAbu][NMehPhe]L[NMeL]T[Sar][NMeL][X6][NMePhe(3-Cl)][NMeL]D-Piperidide; lactam N-11) — 3.7-fold lower, 0.15 ×10⁻⁶ cm/s
- CC(C)C[C@@H]1NC(=O)C[C@@H](C(=O)N2CCCCC2)NC(=O)[C@H](CC(C)C)N(C)C(=O)[C@H](Cc2ccccc2)NC(=O)[C@H](Cc2ccccc2)N(C)C(=O)[C@H]([C@@H](C)O)NC(=O)[C@H](CC(C)C)N(C)C(=O)[C@@H]2C[C@@H](OCCO)CN2C(=O)[C@H](CC(C)C)N(C)C(=O)[C@H](COC(C)(C)C)NC(=O)[C@H](CC(C)C)N(C)C1=O [AP235] (L[NMeL]S(tBu)[NMeL][Hyp](Ethyl(2-OH))[NMeL]T[NMeF]F[NMeL]D-Piperidide; lactam N-11) — 2.7-fold higher, 1.5 ×10⁻⁶ cm/s
- CC(C)C[C@@H]1NC(=O)[C@H](CC(C)C)N(C)C(=O)[C@H](C)N(C)C(=O)[C@@H](C(C)C)NC(=O)C[C@@H](C(=O)N2CCCCC2)NC(=O)[C@H]([C@@H](C)O)NC(=O)[C@H](C)N(C)C(=O)CN(C)C(=O)[C@H](CC(C)C)N(C)C(=O)[C@H](Cc2c[nH]c3ccccc23)NC(=O)[C@H](Cc2ccccc2)N(C)C1=O [pd100] ([dV][NMeA][NMeL]L[NMeF]W[NMeL][Sar][NMeA]TD-Piperidide; lactam N-11) — 5.1-fold lower, 0.11 ×10⁻⁶ cm/s
- CC(C)C[C@H]1C(=O)N[C@@H](COC(C)(C)C)C(=O)N(C)[C@@H](Cc2ccccc2)C(=O)N(C)[C@@H](CC(C)C)C(=O)N[C@H](C(=O)N2CCCCC2)CC(=O)N[C@H](C(C)C)C(=O)N(C)[C@@H](Cc2ccccc2)C(=O)N[C@@H](C(C)C)C(=O)N(C)[C@@H](Cc2ccccc2)C(=O)N[C@@H]([C@@H](C)O)C(=O)N(C)CC(=O)N1C [pd210] ([dV][NMeF]V[NMeF]T[Sar][NMeL]S(tBu)[NMeF][NMeL]D-Piperidide; lactam N-11) — 2.9-fold higher, 1.6 ×10⁻⁶ cm/s
- CCCCN1CC(=O)N[C@@H](CC(C)C)C(=O)N2CCC[C@H]2C(=O)N(C)[C@@H](C(C)C)C(=O)N[C@@H](CCc2ccc(C(=O)NC)c(OC)c2)C(=O)N(C)[C@@H](Cc2ccccc2)C(=O)N(C)[C@@H](CC(C)C)C(=O)N[C@@H](CC(C)C)C(=O)N(C)[C@@H]([C@@H](C)CC)C(=O)N[C@H](C(=O)N2CCCCC2)CC(=O)N[C@H](C(C)C)C(=O)N[C@@H]([C@@H](C)O)C1=O [AP265] ([dV]T[NBuGly]LP[NMeV][hPhe(3-OMe,4-CONHMe)][NMeF][NMeL]L[NMeI]D-Piperidide; lactam N-12) — within 1.5-fold, 0.46 ×10⁻⁶ cm/s
- CCCCN1CC(=O)N(C)[C@@H](CC(C)C)C(=O)N[C@@H](COC(C)(C)C)C(=O)N(C)[C@@H](Cc2ccccc2)C(=O)N(C)[C@@H](CC(C)C)C(=O)N[C@H](C(=O)N2CCCCC2)CC(=O)N[C@H](CC(C)C)C(=O)N(C)[C@@H](Cc2ccccc2)C(=O)N[C@@H](COCCCO)C(=O)N(C)[C@@H](CC(C)C)C(=O)N[C@@H]([C@@H](C)O)C1=O [AP89] ([dL][NMeF]S(Propyl(3-OH))[NMeL]T[NBuGly][NMeL]S(tBu)[NMeF][NMeL]D-Piperidide; lactam N-11) — 4.7-fold lower, 0.12 ×10⁻⁶ cm/s

same assay, conditions: human, Caco-2, Caco-2 (membrane permeability)

Point of comparison: `CCCCN1CC(=O)N(C)[C@@H](CC(C)C)C(=O)N[C@H](C(=O)N2CCCCC2)CC(=O)N(C)[C@@H](C)C(=O)N[C@@H](CCCC(O)C(F)(F)F)C(=O)N(C)[C@@H](CC(C)C)C(=O)N(C)[C@@H](Cc2ccccc2)C(=O)N[C@@H](CC(C)C)C(=O)N(C)[C@@H](Cc2ccccc2)C(=O)N(C)[C@@H]([C@@H](C)CC)C(=O)N[C@@H]([C@@H](C)O)C1=O` (stereo partly drawn) [Compound D04] ([NMeA][X12][NMeL][NMeF]L[NMeF][NMeI]T[NBuGly][NMeL]D-Piperidide; lactam N-11), Papp 0.2 ×10⁻⁶ cm/s. Against it:
- CCCCN1CC(=O)N(C)[C@@H](Cc2ccccc2)C(=O)N[C@@H](CCC(=O)NC)C(=O)N(C)[C@@H](CC(C)C)C(=O)N[C@@H]([C@@H](C)O)C(=O)N(CCCC)CC(=O)N(C)[C@@H](Cc2ccccc2)C(=O)N(C)[C@@H](CC(C)C)C(=O)N[C@@H](CC(C)C)C(=O)N(C)[C@@H]([C@@H](C)CC)C(=O)N[C@H](C(=O)N2CCCCC2)CC1=O [Compound J05] ([NBuGly][NMeF]E(NHMe)[NMeL]T[NBuGly][NMeF][NMeL]L[NMeI]D-Piperidide; lactam N-11) — 3.8-fold lower, 0.052 ×10⁻⁶ cm/s
- CC[C@H]1C(=O)N(C)[C@@H](Cc2ccccc2)C(=O)N[C@@H](CC(C)C)C(=O)N(C)[C@@H](Cc2ccccc2)C(=O)N(C)[C@@H](C(C)C)C(=O)N[C@@H](COCC(O)C(F)(F)F)C(=O)N(C)CC(=O)N(C)[C@@H](CC(C)C)C(=O)N[C@H](C(=O)N2CCCCC2)CC(=O)N(C)[C@@H](C)C(=O)N[C@@H](CC(C)C)C(=O)N1C (stereo partly drawn) [Compound C14] ([NMeA]L[NMeAbu][NMeF]L[NMeF][NMeV]S(CH2CH(OH)CF3)[Sar][NMeL]D-Piperidide; lactam N-11) — 10-fold higher, 2 ×10⁻⁶ cm/s
